Legend:
[1] = target: T1, human dopamine D3 receptors (Homo sapiens, UniProt P35462); experiment: Dopamine D3 receptor binding, [125I]-iodosulpride displacement; conditions: membranes of HEK-293 cells with human D3 receptors, 0.1 nM [125I]-iodosulpride
T1 construct: expressed in transfected cells; host or cells: HEK-293
Protocol: (§1) The substance to be tested was either dissolved in methanol/Chremophor® (BASF SE) or in dimethyl sulfoxide and then diluted with water to the desired concentration.
(§2) Each assay mixture was run in triplicate. • The incubation buffer contained 50 mM tris, 120 mM NaCl, 5 mM KCl, 2 mM CaCl2, 2 mM MgCl2 and 0.1% bovine serum albumin, 10 μM quinolone and 0.1% ascorbic acid (prepared fresh daily). […] Each assay mixture was run in triplicate. • The incubation buffer contained 50 mM tris, 120 mM NaCl, 5 mM KCl, 2 mM CaCl2, 2 mM MgCl2 and 0.1% bovine serum albumin. The buffer was adjusted to pH 7.4 with HCl. c) Measurement and Analysis: • After having been incubated at 25° C. for 60 minutes, the assay mixtures were filtered through a Whatman GF/B glass fiber filter under vacuum using a cell collecting device. The filters were transferred to scintillation viols using a filter transfer system. After 4 ml of Ultima Gold® (Packard) have been added, the samples were shaken for one hour and the radioactivity was then counted in a Beta-Counter (Packard, Tricarb 2000 or 2200CA).

[2] = target: T2, human dopamine D2L receptors (long isoform) (Homo sapiens, UniProt P14416); experiment: Dopamine D2L receptor binding, [125I]-iodospiperone displacement; conditions: selectivity ratio Ki (D2L)/Ki (D3)
T2 construct: expressed in transfected cells; host or cells: HEK-293
Protocol: as §1, §2

[3] = Determination of the microsomal half-life / microsomal clearance; type: in vitro ADME; conditions: human liver microsomes, 0.5 μM test substance, 0.25 mg microsomal protein/ml, pH 7.4, 37° C.
Protocol: The metabolic stability of the compounds of the invention was determined in the following assay.
The test substances were incubated in a concentration of 0.5 μM as follows:
0.5 μM test substance are preincubated together with liver microsomes from different species (from rat, human or other species) (0.25 mg of microsomal protein/ml) in 0.05 M potassium phosphate buffer of pH 7.4 in microtiter plates at 37° C. for 5 min. The reaction is started by adding NADPH (1 mg/mL). After 0, 5, 10, 15, 20 and 30 min, 50 μl aliquots are removed, and the reaction is immediately stopped and cooled with the same volume of acetonitrile. The samples are frozen until analyzed. The remaining concentration of undegraded test substance is determined by MSMS. The half-life (T1/2) is determined from the gradient of the signal of test substance/unit time plot, it being possible to calculate the half-life of the test substance, assuming first order kinetics, from the decrease in the concentration of the compound with time. The microsomal clearance (mCl) is calculated from mCl=1n2/T1/2/(content of microsomal protein in mg/ml)×1000 [[…]] (modified from references: Di, The Society for Biomoleculur Screening, 2003, 453-462; Obach, DMD, 1999 vol 27. N 11, 1350-1359).

T2 sequence (P14416 whole entry, canonical isoform): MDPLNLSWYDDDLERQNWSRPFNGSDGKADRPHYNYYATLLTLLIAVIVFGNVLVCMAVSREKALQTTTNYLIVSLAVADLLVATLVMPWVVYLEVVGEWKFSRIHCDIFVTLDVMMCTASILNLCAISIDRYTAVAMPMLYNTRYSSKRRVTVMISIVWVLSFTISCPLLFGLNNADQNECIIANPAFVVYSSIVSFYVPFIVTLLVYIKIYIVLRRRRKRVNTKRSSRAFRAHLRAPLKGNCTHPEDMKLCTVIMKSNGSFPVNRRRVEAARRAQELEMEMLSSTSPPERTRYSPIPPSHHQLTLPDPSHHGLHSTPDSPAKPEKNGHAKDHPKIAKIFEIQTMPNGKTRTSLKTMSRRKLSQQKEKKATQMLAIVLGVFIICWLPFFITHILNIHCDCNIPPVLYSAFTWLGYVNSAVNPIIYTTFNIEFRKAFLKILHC
T1 sequence (P35462 whole entry): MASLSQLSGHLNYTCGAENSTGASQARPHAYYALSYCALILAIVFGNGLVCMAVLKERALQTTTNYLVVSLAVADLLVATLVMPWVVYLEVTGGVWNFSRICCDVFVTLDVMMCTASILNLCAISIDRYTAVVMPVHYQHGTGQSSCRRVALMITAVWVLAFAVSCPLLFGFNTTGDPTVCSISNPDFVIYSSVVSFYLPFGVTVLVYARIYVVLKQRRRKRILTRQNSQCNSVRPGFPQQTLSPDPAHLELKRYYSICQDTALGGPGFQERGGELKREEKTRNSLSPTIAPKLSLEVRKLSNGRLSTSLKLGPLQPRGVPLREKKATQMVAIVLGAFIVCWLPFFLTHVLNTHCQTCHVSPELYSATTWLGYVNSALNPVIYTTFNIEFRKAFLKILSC

Structure (SMILES) | Ki [1] [nM] | D2/D3, Ki (D2L)/Ki (D3) [2] | Human mCl [3]
CC(C)(C)c1nc(C2CCC2)cc(N2CCN(CC[C@H]3CC[C@@H](NC(=O)[C@H]4CC[C@@H](O)CC4)CC3)CC2)n1.O=C(O)C(F)(F)F [Compound 15, Cis-N-[cis-4-[2-[4-(2-tert-butyl-6-cyclobutyl-pyrimidin-4-yl)piperazin-1-yl]ethyl]cyclohexyl]-4-hydroxy-cyclohexanecarboxamide; 2,2,2-trifluoroacetic acid] | < 10 | +++ (+++>50) | ∘ (∘: >120 μl min^−1 mg^−1)
CC(C)(C)c1nc(C2CCC2)cc(N2CCN(CC[C@H]3C[C@H](NC(=O)[C@H]4CC[C@@H](O)CC4)C3)CC2)n1.O=C(O)C(F)(F)F [Compound 16, Cis-N-[trans-3-[2-[4-(2-tert-butyl-6-cyclobutyl-pyrimidin-4-yl)piperazin-1-yl]ethyl]cyclobutyl]-4-hydroxy-cyclohexanecarboxamide; 2,2,2-trifluoroacetic acid] | < 10 | ++ (++>20) | ∘ (∘: >120 μl min^−1 mg^−1)
COCCc1cc(N2CCN(CC[C@H]3CC[C@@H](NC(=O)[C@H]4C[C@@H](O)C4)CC3)CC2)nc(C(C)(C)C)n1 [Compound 17, cis-N-[cis-4-[2-[4-[2-tert-butyl-6-(2-methoxyethyl)pyrimidin-4-yl]piperazin-1-yl]ethyl]cyclohexyl]-3-hydroxy-cyclobutanecarboxamide] | < 10 | +++ (+++>50) | ∘ (∘: >120 μl min^−1 mg^−1)
COCCc1cc(N2CCN(CC[C@H]3CC[C@H](NC(=O)[C@H]4C[C@@H](O)C4)CC3)CC2)nc(C(C)(C)C)n1 [Compound 18, cis-N-[trans-4-[2-[4-[2-tert-butyl-6-(2-methoxyethyl)pyrimidin-4-yl]piperazin-1-yl]ethyl]cyclohexyl]-3-hydroxy-cyclobutanecarboxamide] | < 10 | +++ (+++>50) | + (+: 20-120 μl min^−1 mg^−1)
CC(C)(C)c1cc(N2CCN(CC[C@H]3CC[C@H](NC(=O)[C@H]4CC[C@H](O)CC4)CC3)CC2)nc(C(C)(C)C)n1 [Compound 20, trans-N-[trans-4-[2-[4-(2,6-ditert-butylpyrimidin-4-yl)piperazin-1-yl]ethyl]cyclohexyl]-4-hydroxy-cyclohexanecarboxamide] | < 10 | ++ (++>20) | + (+: 20-120 μl min^−1 mg^−1)
CC(C)(C)c1nc(N2CCN(CC[C@H]3CC[C@H](NC(=O)[C@H]4CC[C@H](O)CC4)CC3)CC2)cc(C(F)(F)F)n1 [Compound 21, trans-N-[trans-4-[2-[4-[2-tert-butyl-6-(trifluoromethyl)pyrimidin-4-yl]piperazin-1-yl]ethyl]cyclohexyl]-4-hydroxy-cyclohexanecarboxamide] | < 10 | ++ (++>20) | + (+: 20-120 μl min^−1 mg^−1)
CC(C)(C)c1cc(N2CCN(CC[C@H]3CC[C@@H](NC(=O)[C@H]4CC[C@H](O)CC4)CC3)CC2)nc(C(C)(C)C)n1 [Compound 22, trans-N-[cis-4-[2-[4-(2,6-ditert-butylpyrimidin-4-yl)piperazin-1-yl]ethyl]cyclohexyl]-4-hydroxy-cyclohexanecarboxamide] | < 50 | +++ (+++>50) | + (+: 20-120 μl min^−1 mg^−1)
CC(C)(C)c1nc(N2CCN(CC[C@H]3CC[C@@H](NC(=O)[C@H]4CC[C@H](O)CC4)CC3)CC2)cc(C(F)(F)F)n1 [Compound 23, Trans-N-[cis-4-[2-[4-[2-tert-butyl-6-(trifluoromethyl)pyrimidin-4-yl]piperazin-1-yl]ethyl]cyclohexyl]-4-hydroxy-cyclohexanecarboxamide] | < 50 | +++ (+++>50) | + (+: 20-120 μl min^−1 mg^−1)
COCCc1cc(N2CCN(CC[C@H]3CC[C@H](NC(=O)[C@H]4CC[C@H](OC)CC4)CC3)CC2)nc(C(C)(C)C)n1 [Compound 24, trans-N-[trans-4-[2-[4-[2-tert-butyl-6-(2-methoxyethyl)pyrimidin-4-yl]piperazin-1-yl]ethyl]cyclohexyl]-4-methoxy-cyclohexanecarboxamide] | < 50 | ++ (++>20) | ∘ (∘: >120 μl min^−1 mg^−1)
CC(C)(C)c1nc(N2CCN(CCC3CCC(NC(=O)C4CCC(O)CC4)CC3)CC2)cc(C2(C)CC2)n1 (stereo not drawn) [Compound 27, N-[4-[2-[4-[2-tert-butyl-6-(1-methylcyclopropyl)pyrimidin-4-yl]piperazin-1-yl]ethyl]cyclohexyl]-4-hydroxy-cyclohexanecarboxamide] | < 10 | ++ (++>20) | + (+: 20-120 μl min^−1 mg^−1)
CC(C)(C)c1nc(N2CCN(CC[C@H]3CC[C@@H](NC(=O)[C@H]4CC[C@H](O)CC4)CC3)CC2)cc(C2(C)CC2)n1 [Compound 28, Trans-N-[cis-4-[2-[4-[2-tert-butyl-6-(1-methylcyclopropyl)pyrimidin-4-yl]piperazin-1-yl]ethyl]cyclohexyl]-4-hydroxy-cyclohexanecarboxamide] | < 10 | ++ (++>20) | + (+: 20-120 μl min^−1 mg^−1)
CC(C)(C)c1nc(C(F)F)cc(N2CCN(CCC3CCC(NC(=O)C4CCC(O)CC4)CC3)CC2)n1 (stereo not drawn) [Compound 29, N-[4-[2-[4-[2-tert-butyl-6-(difluoromethyl)pyrimidin-4-yl]piperazin-1-yl]ethyl]cyclohexyl]-4-hydroxy-cyclohexanecarboxamide] | < 10 | + (+>10) | + (+: 20-120 μl min^−1 mg^−1)
CC(C)(C)c1nc(C(F)F)cc(N2CCN(CC[C@H]3CC[C@@H](NC(=O)[C@H]4CC[C@H](O)CC4)CC3)CC2)n1 [Compound 30, Trans-N-[cis-4-[2-[4-[2-tert-butyl-6-(difluoromethyl)pyrimidin-4-yl]piperazin-1-yl]ethyl]cyclohexyl]-4-hydroxy-cyclohexanecarboxamide] | < 10 | ++ (++>20) | + (+: 20-120 μl min^−1 mg^−1)
CC(C)c1cc(N2CCN(CCC3CCC(NC(=O)C4CCC(O)CC4)CC3)CC2)nc(C(C)(C)C)n1 (stereo not drawn) [Compound 31, N-[4-[2-[4-(2-tert-butyl-6-isopropyl-pyrimidin-4-yl)piperazin-1-yl]ethyl]cyclohexyl]-4-hydroxy-cyclohexanecarboxamide] | < 10 | ++ (++>20) | + (+: 20-120 μl min^−1 mg^−1)
CC(C)c1cc(N2CCN(CC[C@H]3CC[C@H](NC(=O)[C@H]4CC[C@H](O)CC4)CC3)CC2)nc(C(C)(C)C)n1 [Compound 32, Trans-N-[trans-4-[2-[4-(2-tert-butyl-6-isopropyl-pyrimidin-4-yl)piperazin-1-yl]ethyl]cyclohexyl]-4-hydroxy-cyclohexanecarboxamide] | < 10 | ++ (++>20) | + (+: 20-120 μl min^−1 mg^−1)
COCCc1cc(N2CCN(CCC3CCC(NC(=O)C4CCC(O)CC4)CC3)C[C@H]2C)nc(C(C)(C)C)n1 (stereo partly drawn) [Compound 33, N-[4-[2-[(3R)-4-[2-tert-butyl-6-(2-methoxyethyl)pyrimidin-4-yl]-3-methyl-piperazin-1-yl]ethyl]cyclohexyl]-4-hydroxy-cyclohexanecarboxamide] | < 50 | +++ (+++>50) | + (+: 20-120 μl min^−1 mg^−1)
COCCc1cc(N2CCN(CC[C@H]3CC[C@H](NC(=O)[C@H]4CC[C@H](O)CC4)CC3)C[C@H]2C)nc(C(C)(C)C)n1 [Compound 34, trans-N-[trans-4-[2-[(3R)-4-[2-tert-butyl-6-(2-methoxyethyl)pyrimidin-4-yl]-3-methyl-piperazin-1-yl]ethyl]cyclohexyl]-4-hydroxy-cyclohexanecarboxamide] | < 10 | +++ (+++>50) | + (+: 20-120 μl min^−1 mg^−1)
CC(C)(C)c1nc(C2CCCC2)cc(N2CCN(CC[C@H]3CC[C@H](NC(=O)[C@H]4CC[C@H](O)CC4)CC3)CC2)n1 [Compound 35, trans-N-[trans-4-[2-[4-(2-tert-butyl-6-cyclopentyl-pyrimidin-4-yl)piperazin-1-yl]ethyl]cyclohexyl]-4-hydroxy-cyclohexanecarboxamide] | < 10 | + (+>10) | + (+: 20-120 μl min^−1 mg^−1)

From patent US9388141B2, “Acylaminocycloalkyl compounds suitable for treating disorders that respond to modulation of dopamine D3 receptor” (AbbVie Deutschland GmbH & Co. KG, priority 2013, dated 2016)
